Measured values reported in EP4796557A1, “POLYPEPTIDE, BIOACTIVE CONJUGATE, AND PREPARATION METHOD THEREFOR AND USE THEREOF” (priority 2023, dated 2025).
Square brackets hold non-standard residues; d marks the D form. Peptide text beside a SMILES is read from it. Cit = NC(=O)NCCC[C@H](N)C(=O)O

Assays:
MMP2 = biological target: T1, MMP2 (Homo sapiens, UniProt P08253); experiment: Enzymolysis assay of polypeptides by MMP2 (RP-HPLC); format: biochemical; settings: test polypeptide 100 µmol, activated MMP2, 37°C, 4 h
T1 sequence (P08253 110-660): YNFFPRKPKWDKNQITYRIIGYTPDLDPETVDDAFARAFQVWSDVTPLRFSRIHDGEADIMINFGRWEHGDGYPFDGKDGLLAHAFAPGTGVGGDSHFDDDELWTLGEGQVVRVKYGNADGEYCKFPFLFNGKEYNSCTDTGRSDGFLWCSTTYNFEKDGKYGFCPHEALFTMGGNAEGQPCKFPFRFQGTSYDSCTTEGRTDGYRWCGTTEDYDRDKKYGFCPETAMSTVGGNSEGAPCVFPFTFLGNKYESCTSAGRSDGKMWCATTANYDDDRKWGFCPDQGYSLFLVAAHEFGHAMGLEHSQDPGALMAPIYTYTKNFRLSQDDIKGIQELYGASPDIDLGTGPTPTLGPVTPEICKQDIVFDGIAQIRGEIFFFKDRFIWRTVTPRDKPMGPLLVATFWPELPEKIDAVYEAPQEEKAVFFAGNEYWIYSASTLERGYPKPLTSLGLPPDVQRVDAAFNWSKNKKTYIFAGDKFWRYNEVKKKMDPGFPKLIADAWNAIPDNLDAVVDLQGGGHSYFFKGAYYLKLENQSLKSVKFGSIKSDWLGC
Procedure: (§1) First, MMP2 or MMP9 enzyme solution having a final concentration of 200 µg/mL was mixed with 4 mM APMA at a ratio of 1:1, placed in a 37°C water bath and incubated for 24 h to activate the MMP2 or MMP9 enzyme solution. Subsequently, the test polypeptide having a final concentration of 100 µmol was incubated with the activated MMP2 or MMP9 enzyme solution in a 37°C water bath for 4 h. After the reaction was complete, an equal volume of acetonitrile solution was added thereto, followed by RP-HPLC analysis.
(§2) The enzymolysis efficiency of the polypeptide was calculated based on the peak areas of the target peak before and after enzymolysis. The formula is as follows: Enzymolysis efficiency = […] [formula]

MMP9 = MMP9 (Homo sapiens, UniProt P14780); experiment: Enzymolysis assay of polypeptides by MMP9 (RP-HPLC); format: biochemical; settings: polypeptide 100 µmol with activated MMP9, 37°C, 4 h, RP-HPLC peak areas
MMP9, sequence (P14780 107-707 limits assumed, species assumed): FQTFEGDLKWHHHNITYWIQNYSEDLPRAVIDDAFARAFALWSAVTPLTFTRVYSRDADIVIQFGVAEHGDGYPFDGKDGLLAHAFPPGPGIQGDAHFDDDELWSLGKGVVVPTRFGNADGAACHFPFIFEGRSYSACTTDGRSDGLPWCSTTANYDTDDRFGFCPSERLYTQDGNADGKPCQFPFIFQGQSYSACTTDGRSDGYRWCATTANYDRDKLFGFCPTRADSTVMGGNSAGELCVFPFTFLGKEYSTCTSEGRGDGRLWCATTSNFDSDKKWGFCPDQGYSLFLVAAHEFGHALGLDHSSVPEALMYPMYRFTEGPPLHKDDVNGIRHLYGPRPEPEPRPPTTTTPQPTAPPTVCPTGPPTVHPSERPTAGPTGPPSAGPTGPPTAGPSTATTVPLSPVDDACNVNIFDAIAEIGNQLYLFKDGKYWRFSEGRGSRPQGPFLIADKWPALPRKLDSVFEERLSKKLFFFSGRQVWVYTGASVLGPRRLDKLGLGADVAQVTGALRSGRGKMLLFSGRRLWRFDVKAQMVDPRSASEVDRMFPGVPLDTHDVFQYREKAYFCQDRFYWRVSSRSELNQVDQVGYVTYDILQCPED
Procedure: as §1, §2

Compound	Enzymolysis efficiency (%) (MMP2)	Enzymolysis efficiency (%) (MMP9)
CC(=O)N[C@@H](Cc1c[nH]cn1)C(=O)N[C@H](C(=O)N[C@@H](CC(C)C)C(=O)N[C@@H](CC(N)=O)C(=O)N[C@@H](CC(C)C)C(=O)N[C@H](C(=O)N[C@@H](CCCNC(N)=O)C(N)=O)C(C)C)C(C)C [Compound 1-P2] (Ac-HVLNLV[Cit]-NH2)	14.28%	
CC(=O)N[C@H](C(=O)N1CCC[C@H]1C(=O)N[C@@H](CC(C)C)C(=O)N[C@@H](CO)C(=O)N[C@@H](CC(C)C)C(=O)N[C@H](C(=O)N[C@@H](CCCNC(N)=O)C(N)=O)C(C)C)C(C)C [Compound 1-P3] (Ac-VPLSLV[Cit]-NH2)	49.85%	51.44%
CC[C@H](C)[C@H](NC(C)=O)C(=O)N1CCC[C@H]1C(=O)N[C@H](C(=O)N[C@@H](CO)C(=O)N[C@@H](CC(C)C)C(=O)N[C@H](C(=O)N[C@@H](CCCNC(N)=O)C(N)=O)C(C)C)C(C)C [Compound 1-P4] (Ac-IPVSLV[Cit]-NH2)	21.87%	18.84%
CC(=O)NCC(=O)N1CCC[C@H]1C(=O)N[C@@H](CC(C)C)C(=O)N[C@@H](CO)C(=O)N[C@@H](CC(C)C)C(=O)N[C@H](C(=O)N[C@@H](CCCNC(N)=O)C(N)=O)C(C)C [Compound 1-P5] (Ac-GPLSLV[Cit]-NH2)	52.03%	54.80%
CC(=O)NCC(=O)N1CCC[C@H]1C(=O)N[C@@H](C)C(=O)N[C@@H](CO)C(=O)N[C@@H](CC(C)C)C(=O)N[C@H](C(=O)N[C@@H](CCCNC(N)=O)C(N)=O)C(C)C [Compound 1-P6] (Ac-GPASLV[Cit]-NH2)	86.72%	28.79%
CC(=O)NCC(=O)N1CCC[C@H]1C(=O)N[C@@H](C)C(=O)NCC(=O)N[C@@H](CC(C)C)C(=O)N[C@H](C(=O)N[C@@H](CCCNC(N)=O)C(N)=O)C(C)C [Compound 1-P7] (Ac-GPAGLV[Cit]-NH2)	90.29%	25.55%
CC(=O)NCC(=O)N1CCC[C@H]1C(=O)N[C@@H](CCC(N)=O)C(=O)NCC(=O)N[C@@H](CC(C)C)C(=O)N[C@H](C(=O)N[C@@H](CCCNC(N)=O)C(N)=O)C(C)C [Compound 1-P8] (Ac-GPQGLV[Cit]-NH2)	54.71%	29.30%
CC(=O)NCC(=O)N1CCC[C@H]1C(=O)N[C@@H](CC(C)C)C(=O)NCC(=O)N[C@@H](CC(C)C)C(=O)N[C@H](C(=O)N[C@@H](CCCNC(N)=O)C(N)=O)C(C)C [Compound 1-P9] (Ac-GPLGLV[Cit]-NH2)	81.75%	68.34%
CC(=O)NCC(=O)N1CCC[C@H]1C(=O)N[C@@H](CO)C(=O)NCC(=O)N[C@@H](CC(C)C)C(=O)N[C@H](C(=O)N[C@@H](CCCNC(N)=O)C(N)=O)C(C)C [Compound 1-P10] (Ac-GPSGLV[Cit]-NH2)	75.95%	27.93%
CC(=O)NCC(=O)N1CCC[C@H]1C(=O)N[C@@H](CCCNC(=N)N)C(=O)NCC(=O)N[C@@H](CC(C)C)C(=O)N[C@H](C(=O)N[C@@H](CCCNC(N)=O)C(N)=O)C(C)C [Compound 1-P11] (Ac-GPRGLV[Cit]-NH2)	86.82%	81.51%
CC(=O)NCC(=O)N1CCC[C@H]1C(=O)N[C@@H](C)C(=O)N[C@@H](C)C(=O)N[C@@H](CC(C)C)C(=O)N[C@H](C(=O)N[C@@H](CCCNC(N)=O)C(N)=O)C(C)C [Compound 1-P12] (Ac-GPAALV[Cit]-NH2)	38.94%	20.93%
CC(=O)NCC(=O)N1CCC[C@H]1C(=O)N[C@@H](CO)C(=O)N[C@@H](C)C(=O)N[C@@H](CC(C)C)C(=O)N[C@H](C(=O)N[C@@H](CCCNC(N)=O)C(N)=O)C(C)C [Compound 1-P13] (Ac-GPSALV[Cit]-NH2)	90.13%	45.08%
CC(=O)N1CCC[C@H]1C(=O)N[C@@H](CCCNC(=N)N)C(=O)NCC(=O)N[C@@H](CC(C)C)C(=O)N[C@H](C(=O)N[C@@H](CCCNC(N)=O)C(N)=O)C(C)C [Compound 2-P1, PRGLVCit] (Ac-PRGLV[Cit]-NH2)	80.31%	93.67%
CC(=O)N1CCC[C@H]1C(=O)N[C@@H](CCCNC(=N)N)C(=O)N[C@@H](CO)C(=O)N[C@@H](CC(C)C)C(=O)N[C@H](C(=O)N[C@@H](CCCNC(N)=O)C(N)=O)C(C)C [Compound 2-P2] (Ac-PRSLV[Cit]-NH2)	53.20%	79.34%
CC(=O)N1CCC[C@H]1C(=O)N[C@@H](CCCNC(=N)N)C(=O)N[C@@H](CC(N)=O)C(=O)N[C@@H](CC(C)C)C(=O)N[C@H](C(=O)N[C@@H](CCCNC(N)=O)C(N)=O)C(C)C [Compound 2-P3] (Ac-PRNLV[Cit]-NH2)	66.36%	97.39%
CC(=O)N1CCC[C@H]1C(=O)N[C@@H](CCCNC(=N)N)C(=O)N1CCC[C@H]1C(=O)N[C@@H](CC(C)C)C(=O)N[C@H](C(=O)N[C@@H](CCCNC(N)=O)C(N)=O)C(C)C [Compound 2-P4] (Ac-PRPLV[Cit]-NH2)	46.14%	61.01%
CC(=O)N1CCC[C@H]1C(=O)N[C@@H](CCCNC(N)=O)C(=O)NCC(=O)N[C@@H](CC(C)C)C(=O)N[C@H](C(=O)N[C@@H](CCCNC(N)=O)C(N)=O)C(C)C [Compound 2-P5] (Ac-P[Cit]GLV[Cit]-NH2)	61.03%	68.91%
CC(=O)N1CCC[C@H]1C(=O)N[C@@H](CCCNC(N)=O)C(=O)N1CCC[C@H]1C(=O)N[C@@H](CC(C)C)C(=O)N[C@H](C(=O)N[C@@H](CCCNC(N)=O)C(N)=O)C(C)C [Compound 2-P6] (Ac-P[Cit]PLV[Cit]-NH2)	36.21%	36.08%
CC(=O)NCC(=O)N1CCC[C@H]1C(=O)N[C@@H](CCCNC(=N)N)C(=O)N[C@@H](CO)C(=O)N[C@@H](CC(C)C)C(=O)N[C@H](C(=O)N[C@@H](CCCNC(N)=O)C(N)=O)C(C)C [Compound 2-P7] (Ac-GPRSLV[Cit]-NH2)	62.64%	77.95%
CC(=O)NCC(=O)N1CCC[C@H]1C(=O)N[C@@H](CCCNC(=N)N)C(=O)N1CCC[C@H]1C(=O)N[C@@H](CC(C)C)C(=O)N[C@H](C(=O)N[C@@H](CCCNC(N)=O)C(N)=O)C(C)C [Compound 2-P8] (Ac-GPRPLV[Cit]-NH2)	55.07%	62.58%
CC(=O)NCC(=O)N1CCC[C@H]1C(=O)N[C@@H](CCCNC(=N)N)C(=O)N[C@@H](CC(N)=O)C(=O)N[C@@H](CC(C)C)C(=O)N[C@H](C(=O)N[C@@H](CCCNC(N)=O)C(N)=O)C(C)C [Compound 2-P9] (Ac-GPRNLV[Cit]-NH2)	77.00%	100.00%
CC(=O)NCC(=O)N1CCC[C@H]1C(=O)N[C@@H](CCCNC(N)=O)C(=O)NCC(=O)N[C@@H](CC(C)C)C(=O)N[C@H](C(=O)N[C@@H](CCCNC(N)=O)C(N)=O)C(C)C [Compound 2-P10] (Ac-GP[Cit]GLV[Cit]-NH2)	71.24%	80.34%
CC(=O)NCC(=O)N1CCC[C@H]1C(=O)N[C@@H](CCCNC(N)=O)C(=O)N1CCC[C@H]1C(=O)N[C@@H](CC(C)C)C(=O)N[C@H](C(=O)N[C@@H](CCCNC(N)=O)C(N)=O)C(C)C [Compound 2-P11] (Ac-GP[Cit]PLV[Cit]-NH2)	40.95%	45.82%
CC(=O)N[C@@H](Cc1c[nH]cn1)C(=O)N1CCC[C@H]1C(=O)N[C@@H](CCCNC(=N)N)C(=O)NCC(=O)N[C@@H](CC(C)C)C(=O)N[C@H](C(=O)N[C@@H](CCCNC(N)=O)C(N)=O)C(C)C [Compound 2-P12] (Ac-HPRGLV[Cit]-NH2)	77.58%	95.73%
CC(=O)N[C@@H](Cc1c[nH]cn1)C(=O)N1CCC[C@H]1C(=O)N[C@@H](CCCNC(=N)N)C(=O)N[C@@H](CO)C(=O)N[C@@H](CC(C)C)C(=O)N[C@H](C(=O)N[C@@H](CCCNC(N)=O)C(N)=O)C(C)C [Compound 2-P13] (Ac-HPRSLV[Cit]-NH2)	57.42%	81.06%
